According to patent US20050176938A1, “Anhydrate/hydrate of an erythromycin derivative and processes for preparing said anhydrate/hydrate” (Chugai Seiyaku Kabushiki Kaisha, priority 2002, published 2005):
Structures can show the parent of a compound that is named as a salt. Values belong to the molecule of their own block, whether it stands above or below them.

Tests used:
Format in all cases: physicochemical
[1] = Accelerated testing with oxygen at 40° C. for 2 weeks and 1 month, degradants by HPLC; details: for Percent Degradants: Oxygen replacement, X-hydrate 75% RH
Method: (§1) The resulting samples were tested for purity by HPLC, and the peak area of each sample was measured by automatic analysis to determine the product percentage by the area percentage method according to the equation below. The HPLC column used was YMC ODS AM303 (4.6×250 mm) with a mobile phase consisting of a solution of acetonitrile: water=1:1 containing PICB-8 (Low UV) reagent, and a UV spectrometer (260 nm) and a PDA (200-400 nm) were used as detectors on 25 μL of each sample solution prepared by dissolving about 20 mg of each sample in a solution of acetonitrile:water=1:1 to a volume of exactly 25 mL.
(§2) Degradants percentage (%)=(degradants peak area×100)/(total of peak areas excluding peaks derived from fumaric acid and control solution)
In the same manner as described in (1) above, Crystal form D was stored and dried under reduced pressure in a desiccator containing silica gel. After drying under reduced pressure, the air in the desiccator was replaced with high-purity oxygen conditioned at a relative humidity of 0% RH to perform accelerated testing of Crystal form D anhydrate at 40° C. for 2 weeks and for 1 month. Similarly, Crystal form D was stored in a desiccator conditioned at a relative humidity of about 75% RH by an aqueous saturated sodium chloride solution and the air in the desiccator was replaced with high-purity oxygen conditioned at a relative humidity of 75% RH to perform accelerated testing of Crystal form D X-hydrate at 40° C. for 2 weeks and for 1 month. The resulting samples were analyzed as described in (1) above. Before and after accelerated testing, the crystal form was confirmed to be kept Crystal form D anhydrate or Crystal form D X-hydrate under each conditions by powder X-ray diffraction spectra.

[2] = Accelerated testing (stability) of Crystal form D anhydrate and X-hydrate at 40° C. and 60° C. for 1 month, degradants by HPLC; details: for Percent Degradants: X-hydrate at about 75% RH
Method: Three lots of Crystal form D anhydrate prepared according to the procedure described in Example 2 were stored and dried under reduced pressure in a desiccator containing silica gel. After drying under reduced pressure, the desiccator was charged with air conditioned at a relative humidity of 0% RH to perform accelerated testing of Crystal form D anhydrate at 40° C. for 1 month and at 60° C. for 1 month. Similarly, Crystal form D was stored in a desiccator conditioned at a relative humidity of about 75% RH by an aqueous saturated sodium chloride solution to perform accelerated testing of Crystal form D X-hydrate at 40° C. for 1 month and at 60° C. for 1 month. Before and after accelerated testing, the crystal form was confirmed to be Crystal form D anhydrate or Crystal form D X-hydrate by powder X-ray diffraction spectra.
as §1, §2

[3] = Residual solvent level (ethyl acetate) by gas chromatography; details: for Residual solvent level: anhydrate before, X-hydrate after conditioning
Description: The residual solvent level described above can be determined by a known method such as gas chromatography. Gas chromatography is described in detail at B98-B114 of the Practical Guide of the 14th revision of Pharmacopoeia of Japan (published by Hirokawa Publishing Co., 2001) or the like. The measurement error by gas chromatography is normally within about ±1%.
The following examples further illustrate the present invention without, however, limiting the invention thereto. In the following examples, NMR spectra were measured by using a nuclear magnetic resonance spectrometer JNM-ECP500SS (made by JEOL) and only characteristic peaks were shown. Powder X-ray diffraction spectra were measured by using a powder X-ray diffractometer RINT-1100 (made by Rigaku). Residual solvent levels were measured by using a gas chromatograph GC-17A (made by Shimadzu) within an error of about ±1%. The staring material Dihydroxy compound described below (compound 1) can be prepared according to the process described in JPA 1997-100241 or modifications thereof.
Crystal form D anhydrate prepared according to Example 2 and Crystal form D X-hydrate prepared by conditioning said anhydrate according to Example 3 (1) or (2) using an air-circulating dryer (made by Nippon Kansoki), a vibro-fluidized bed dryer VUA-10DJ (made by Chuo Kakohki) or a fluidized bed granulator New Marumerizer NQ-160 (made by Fuji Paudal) were assayed for their residual solvent levels (ethyl acetate) by gas chromatography. Before and after conditioning, the crystal form was confirmed by powder X-ray diffraction spectra to have been transferred from Crystal form D anhydrate into Crystal form D X-hydrate.

- Percent Degradants ([1]; 1 month, Lot 1, anhydrate 0% RH, listed as Anhydrate): 3.12%
- Percent Degradants ([1]; 1 month, Lot 2, anhydrate 0% RH, listed as Anhydrate): 3.39%
- Percent Degradants ([1]; 1 month, Lot 3, anhydrate 0% RH, listed as Anhydrate): 3.96%
- Percent Degradants ([1]; 2 weeks, Lot 1, anhydrate 0% RH, listed as Anhydrate): 1.01%
- Percent Degradants ([1]; 2 weeks, Lot 2, anhydrate 0% RH, listed as Anhydrate): 1.00%
- Percent Degradants ([1]; 2 weeks, Lot 3, anhydrate 0% RH, listed as Anhydrate): 1.32%
- Percent Degradants ([2]; 40° C., Lot 1, anhydrate at 0% RH, listed as Anhydrate): 1.01%
- Percent Degradants ([2]; 40° C., Lot 2, anhydrate at 0% RH, listed as Anhydrate): 1.38%
- Percent Degradants ([2]; 40° C., Lot 3, anhydrate at 0% RH, listed as Anhydrate): 1.41%
- Percent Degradants ([2]; 60° C., Lot 1, anhydrate at 0% RH, listed as Anhydrate): 2.66%
- Percent Degradants ([2]; 60° C., Lot 2, anhydrate at 0% RH, listed as Anhydrate): 2.52%
- Percent Degradants ([2]; 60° C., Lot 3, anhydrate at 0% RH, listed as Anhydrate): 3.05%
- Residual solvent level ([3]; Lot A, Air-circulating dryer, 20-21° C., 58-63% RH (air) 2 hrs, listed as Anhydrate): 697 ppm
- Residual solvent level ([3]; Lot B, Vibro-fluidized bed dryer, 22-28° C., 75 ± 15% RH (nitrogen gas) 4 hrs, listed as Anhydrate): 616 ppm
- Residual solvent level ([3]; Lot C, Fluidized bed granulator, 24-29° C., 75 ± 10% RH (air) 4 hrs, listed as Anhydrate): 750 ppm
- Residual solvent level ([3]; Lot D, Vibro-fluidized bed dryer, 19-26° C., 70-71% RH (nitrogen gas) 4 hrs, listed as Anhydrate): 875 ppm
- Residual solvent level ([3]; Lot E, Air-circulating dryer, 19-28° C., 41-71% RH (air) 72 hrs, listed as Anhydrate): 663 ppm
Compound: CC[C@H]1OC(=O)[C@H](C)[C@@H](O[C@H]2C[C@@](C)(OC)[C@@H](O)[C@H](C)O2)[C@H](C)[C@@H](O[C@@H]2O[C@H](C)C[C@H](N(C)C(C)C)[C@H]2O)[C@@]2(C)CC(C)=C(O2)[C@H](C)C(=O)[C@]1(C)OC [Crystal form D anhydrate, [2S, 4R, 5R, 8R, 9S, 10S, 11R, 12R]-9-[(2,6-dideoxy-3-C-methyl-3-O-methyl-α-L-ribo-hexopyranosyl)oxy]-5-ethyl-4-methoxy-2,4,8,10,12,14-hexamethyl-11-[[3,4,6-trideoxy-3-(isopropylmethylamino)-β-D-xylo-hexopyranosyl]oxy]-6,15-dioxabicyclo[10.2.1]pentadec-14(1)-ene-3,7-dione (E)-2-butenedioic acid salt (2:1)]

- Percent Degradants ([1]; 1 month, Lot 1, anhydrate 0% RH, listed as X-hydrate): 0.66%
- Percent Degradants ([1]; 1 month, Lot 2, anhydrate 0% RH, listed as X-hydrate): 0.72%
- Percent Degradants ([1]; 1 month, Lot 3, anhydrate 0% RH, listed as X-hydrate): 0.93%
- Percent Degradants ([1]; 2 weeks, Lot 1, anhydrate 0% RH, listed as X-hydrate): 0.17%
- Percent Degradants ([1]; 2 weeks, Lot 2, anhydrate 0% RH, listed as X-hydrate): 0.05%
- Percent Degradants ([1]; 2 weeks, Lot 3, anhydrate 0% RH, listed as X-hydrate): 0.18%
- Percent Degradants ([2]; 40° C., Lot 1, anhydrate at 0% RH, listed as X-hydrate): 0.17%
- Percent Degradants ([2]; 40° C., Lot 2, anhydrate at 0% RH, listed as X-hydrate): 0.42%
- Percent Degradants ([2]; 40° C., Lot 3, anhydrate at 0% RH, listed as X-hydrate): 0.22%
- Percent Degradants ([2]; 60° C., Lot 1, anhydrate at 0% RH, listed as X-hydrate): 0.90%
- Percent Degradants ([2]; 60° C., Lot 2, anhydrate at 0% RH, listed as X-hydrate): 0.63%
- Percent Degradants ([2]; 60° C., Lot 3, anhydrate at 0% RH, listed as X-hydrate): 1.53%
- Residual solvent level ([3]; Lot A, Air-circulating dryer, 20-21° C., 58-63% RH (air) 2 hrs, listed as X-hydrate): 636 ppm
- Residual solvent level ([3]; Lot B, Vibro-fluidized bed dryer, 22-28° C., 75 ± 15% RH (nitrogen gas) 4 hrs, listed as X-hydrate): 446 ppm
- Residual solvent level ([3]; Lot C, Fluidized bed granulator, 24-29° C., 75 ± 10% RH (air) 4 hrs, listed as X-hydrate): 424 ppm
- Residual solvent level ([3]; Lot D, Vibro-fluidized bed dryer, 19-26° C., 70-71% RH (nitrogen gas) 4 hrs, listed as X-hydrate): 424 ppm
- Residual solvent level ([3]; Lot E, Air-circulating dryer, 19-28° C., 41-71% RH (air) 72 hrs, listed as X-hydrate): 251 ppm
- residual solvent level compared between the crystal forms ([3]; all the lots): lower
Compound: CC[C@H]1OC(=O)[C@H](C)[C@@H](O[C@H]2C[C@@](C)(OC)[C@@H](O)[C@H](C)O2)[C@H](C)[C@@H](O[C@@H]2O[C@H](C)C[C@H](N(C)C(C)C)[C@H]2O)[C@@]2(C)CC(C)=C(O2)[C@H](C)C(=O)[C@]1(C)OC [Crystal form D X-hydrate, [2S, 4R, 5R, 8R, 9S, 10S, 11R, 12R]-9-[(2,6-dideoxy-3-C-methyl-3-O-methyl-α-L-ribo-hexopyranosyl)oxy]-5-ethyl-4-methoxy-2,4,8,10,12,14-hexamethyl-11-[[3,4,6-trideoxy-3-(isopropylmethylamino)-β-D-xylo-hexopyranosyl]oxy]-6,15-dioxabicyclo[10.2.1]pentadec-14 (1)-ene-3,7-dione (E)-2-butenedioic acid salt (2:1)]
- stability compared between the crystal forms ([1]; oxygen replacement, 2 weeks and 1 month): more stable than Crystal form D anhydrate
- stability compared between the crystal forms ([2]; 40° C. and 60° C., all the lots): more stable than Crystal form D anhydrate
